The source of these data is patent publication US8410117B2, “Imidazopyrimidine derivatives” (Hoffmann-La Roche Inc., priority 2010, dated 2013).

What is called IC50 is the concentration at which inhibition is half-maximal.

The experiment deals with T1, human PDE10A (Homo sapiens, UniProt Q9Y233).
T1 construct: The human PDE10A full length assay; purchased Enzo Life Science, Lausen, Switzerland SE-534
T1 sequence (Q9Y233 1-779 isoform Q9Y233-1): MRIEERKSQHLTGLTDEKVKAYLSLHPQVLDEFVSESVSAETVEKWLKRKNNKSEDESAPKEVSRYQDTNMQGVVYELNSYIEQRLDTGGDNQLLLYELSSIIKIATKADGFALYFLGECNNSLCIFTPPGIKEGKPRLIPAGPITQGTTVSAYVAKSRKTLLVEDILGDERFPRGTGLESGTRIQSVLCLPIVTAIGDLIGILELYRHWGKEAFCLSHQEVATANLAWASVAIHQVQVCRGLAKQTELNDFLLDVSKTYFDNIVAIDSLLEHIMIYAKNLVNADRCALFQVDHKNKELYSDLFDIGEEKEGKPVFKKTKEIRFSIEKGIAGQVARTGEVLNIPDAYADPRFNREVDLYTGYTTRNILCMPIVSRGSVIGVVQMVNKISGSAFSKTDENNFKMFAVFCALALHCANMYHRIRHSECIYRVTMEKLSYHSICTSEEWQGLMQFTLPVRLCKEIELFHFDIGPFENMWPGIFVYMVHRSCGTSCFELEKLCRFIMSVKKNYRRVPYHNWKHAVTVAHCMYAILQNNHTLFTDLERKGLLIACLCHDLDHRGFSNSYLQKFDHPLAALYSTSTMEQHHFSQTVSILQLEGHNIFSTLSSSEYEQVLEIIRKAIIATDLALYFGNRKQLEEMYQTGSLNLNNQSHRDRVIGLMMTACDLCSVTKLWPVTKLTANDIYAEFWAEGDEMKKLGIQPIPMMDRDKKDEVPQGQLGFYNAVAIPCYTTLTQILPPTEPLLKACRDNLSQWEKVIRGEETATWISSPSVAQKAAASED
Kind of experiment: human PDE10A full length Scintillation Proximity Assay (SPA). Particulars: 50 nM cGMP and 50 nM [3H]-cGMP, 20 minutes at room temperature; read-out: PDE10A inhibition IC50. The experiment is classed as biochemical. On the procedure:
The following test was carried out in order to determine the activity of the compounds of the present invention. PDE10 activity of the compounds of the present invention was determined using a Scintillation Proximity Assay (SPA)-based method similar to the one previously described (Fawcett, L. et al., Proc Natl Acad Sci USA (2000) 97(7):3702-3707).
The human PDE10A full length assay was performed in 96-well micro titer plates. The reaction mixture of 50 μl contained 20 mM HEPES pH=7.5/10 mM MgCl2/0.05 mg/ml BSA (Sigma cat. #A-7906), 50 nM cGMP (Sigma, cat. #G6129) and 50 nM [^3H]-cGMP (GE Healthcare, cat. #TRK392 S.A. 13.2 Ci/mmol), 3.75 ng/well PDE10A enzyme (Enzo Life Science, Lausen, Switzerland cat #SE-534) with or without a specific test compound. A range of concentrations of the potential inhibitor was used to generate data for calculating the concentration of inhibitor resulting in 50% of the effect (e.g. IC50, the concentration of the competitor inhibiting PDE10A activity by 50%). Non-specific activity was tested without the enzyme. The reaction was initiated by the addition of the substrate solution (cGMP and [^3H]-cGMP) and allowed to progress for 20 minutes at room temperature. The reaction was terminated by adding 25 μl of YSi-SPA scintillation beads (GE Healthcare, cat. #RPNQ0150) in 18 mM zinc sulphate solution (stop reagent). After 1 h under shaking, the plate was centrifuged one minute at 170 g to allow beads to settle. Afterwards, radioactive counts were measured on a Perkin Elmer TopCount Scintillation plate reader.
Background: In a scintillation proximity assay essentially only radioactivity close to the scintillant gives light.
As to `CN(C)C(=O)c1cnn(C)c1C(=O)Nc1ccn2cc(-c3cccc(OCCF)c3)nc2n1` [Example 102, 2-Methyl-2H-pyrazole-3,4-dicarboxylic acid 4-dimethylamide 3-({2-[3-(2-fluoro-ethoxy)-phenyl]-imidazo[1,2-a]pyrimidin-7-yl}-amide)], the IC50 was determined as 0.0279 µM.
With `CN(Cc1ccc(Br)cn1)C(=O)c1cnn(C)c1C(=O)Nc1ccn2cc(-c3ccccc3)nc2n1` [Example 136, N4-((5-bromopyridin-2-yl)methyl)-N4,1-dimethyl-N5-(2-phenylimidazo[1,2-a]pyrimidin-7-yl)-1H-pyrazole-4,5-dicarboxamide] the figure was 0.0997 µM; with `CC1CCCN1C(=O)c1cnn(C)c1C(=O)Nc1ccn2cc(-c3ccccc3)nc2n1` (centres unmarked) [Example 116, 1-methyl-4-(2-methylpyrrolidine-1-carbonyl)-N-(2-phenylimidazo[1,2-a]pyrimidin-7-yl)-1H-pyrazole-5-carboxamide], 0.0051 µM.
Regarding `CC(C)c1noc(CNC(=O)c2cnn(C)c2C(=O)Nc2ccn3cc(-c4ccccc4)nc3n2)n1` [Example 171, N4-((3-isopropyl-1,2,4-oxadiazol-5-yl)methyl)-1-methyl-N5-(2-phenylimidazo[1,2-a]pyrimidin-7-yl)-1H-pyrazole-4,5-dicarboxamide], the half-maximal inhibitory concentration (IC50) is 0.989 µM.
Consider `CN(C)C(=O)c1cnn(C)c1C(=O)Nc1ccn2cc(-c3cccc(OCF)c3)nc2n1` [Example 88, 2-Methyl-2H-pyrazole-3,4-dicarboxylic acid 4-dimethylamide 3-{[2-(3-fluoromethoxy-phenyl)-imidazo[1,2-a]pyrimidin-7-yl]-amide}], for which the IC50 amounted to 0.0057 µM.
As to `CC(C)Cn1nc([N+](=O)[O-])cc1C(=O)Nc1ccn2cc(-c3ccccc3)nc2n1` [Example 13, 2-Isobutyl-5-nitro-2H-pyrazole-3-carboxylic acid (2-phenyl-imidazo[1,2-a]pyrimidin-7-yl)-amide], the IC50 came to 0.0479 µM.
With `COc1ncccc1CNC(=O)c1cnn(C)c1C(=O)Nc1ccn2cc(-c3ccccc3)nc2n1` [Example 161, N4-((2-methoxypyridin-3-yl)methyl)-1-methyl-N5-(2-phenylimidazo[1,2-a]pyrimidin-7-yl)-1H-pyrazole-4,5-dicarboxamide] the figure was 0.547 µM; with `Cc1cc(Br)c(C)c(C(=O)Nc2ccn3cc(-c4ccccc4)nc3n2)n1` [Example 24, 4-Bromo-3,6-dimethyl-pyridine-2-carboxylic acid (2-phenyl-imidazo[1,2-a]pyrimidin-7-yl)-amide], 0.321 µM; with `CCN(C)C(=O)c1cn(C)nc1C(=O)Nc1ccn2cc(-c3ccccc3)nc2n1` [Example 68, 1-Methyl-1H-pyrazole-3,4-dicarboxylic acid 4-(ethyl-methyl-amide) 3-[(2-phenyl-imidazo[1,2-a]pyrimidin-7-yl)-amide]], 0.0377 µM.
With `CN(CC#N)C(=O)c1cnn(C)c1C(=O)Nc1ccn2cc(-c3ccccc3)nc2n1` [Example 119, N4-(cyanomethyl)-N4,1-dimethyl-N5-(2-phenylimidazo[1,2-a]pyrimidin-7-yl)-1H-pyrazole-4,5-dicarboxamide], the IC50 amounted to 0.0133 µM.
Regarding `CCN(C)C(=O)c1cnn(C)c1C(=O)Nc1ccn2cc(-c3cccc(F)c3)nc2n1` [Example 97, 2-Methyl-2H-pyrazole-3,4-dicarboxylic acid 4-(ethyl-methyl-amide) 3-{[2-(3-fluoro-phenyl)-imidazo[1,2-a]pyrimidin-7-yl]-amide}], the 50% inhibitory concentration (IC50) stood at 0.0147 µM.
For `Cn1ncc(C(=O)N2CCOCC2c2cccnc2)c1C(=O)Nc1ccn2cc(-c3ccccc3)nc2n1` (centres unmarked) [Example 137, 1-methyl-N-(2-phenylimidazo[1,2-a]pyrimidin-7-yl)-4-(3-(pyridin-3-yl)morpholine-4-carbonyl)-1H-pyrazole-5-carboxamide], the half-maximal inhibitory concentration (IC50) was determined as 0.117 µM.
With `Cn1ncc(C(=O)NCC(F)(F)F)c1C(=O)Nc1ccn2cc(-c3ccccc3)nc2n1` [Example 130, 1-methyl-N5-(2-phenylimidazo[1,2-a]pyrimidin-7-yl)-N4-(2,2,2-trifluoroethyl)-1H-pyrazole-4,5-dicarboxamide], the IC50 is 0.0349 µM.
The same measure for `CN(C)C(=O)c1cnn(C)c1C(=O)Nc1ccn2cc(-c3cccc(O)c3)nc2n1` [Example 84, 2-Methyl-2H-pyrazole-3,4-dicarboxylic acid 4-dimethylamide 3-{[2-(3-hydroxy-phenyl)-imidazo[1,2-a]pyrimidin-7-yl]-amide}]: 0.0038 µM; for `O=C(Nc1ccn2cc(-c3ccccc3)nc2n1)c1ccnc(Cl)c1` [Example 19, 2-Chloro-N-(2-phenyl-imidazo[1,2-a]pyrimidin-7-yl)-isonicotinamide]: 0.553 µM; for `Cn1ncc(C(=O)NCCCO)c1C(=O)Nc1ccn2cc(-c3ccccc3)nc2n1` [Example 38]: 0.0229 µM.
Turning to `CC(C)Cn1ncc(Cl)c1C(=O)Nc1ccn2cc(-c3ccccc3)nc2n1` [Example 12, 4-Chloro-2-isobutyl-2H-pyrazole-3-carboxylic acid (2-phenyl-imidazo[1,2-a]pyrimidin-7-yl)-amide], the IC50 is 0.0188 µM.
For `CN(CCOCCF)C(=O)c1cnn(C)c1C(=O)Nc1ccn2cc(-c3cccc(OCCF)c3)nc2n1` [Example 109, 2-Methyl-2H-pyrazole-3,4-dicarboxylic acid 4-{[2-(2-fluoro-ethoxy)-ethyl]-methyl-amide}3-({2-[3-(2-fluoro-ethoxy)-phenyl]-imidazo[1,2-a]pyrimidin-7-yl}-amide)], the IC50 was found to be 0.089 µM.
Turning to `CCCNC(=O)c1cnn(C)c1C(=O)Nc1ccn2cc(-c3ccccc3)nc2n1` [Example 57, 2-Methyl-2H-pyrazole-3,4-dicarboxylic acid 3-[(2-phenyl-imidazo[1,2-a]pyrimidin-7-yl)-amide]-4-propylamide], the IC50 turned out to be 0.023 µM.
As for `Cn1ncc(C(=O)N2CCCCC2)c1C(=O)Nc1ccn2cc(-c3ccccc3)nc2n1` [Example 52, 2-Methyl-4-(piperidine-1-carbonyl)-2H-pyrazole-3-carboxylic acid (2-phenyl-imidazo[1,2-a]pyrimidin-7-yl)-amide], the IC50 worked out at 0.0029 µM.
Consider `Cn1ncc(C(=O)N2CC3(COC3)C2)c1C(=O)Nc1ccn2cc(-c3ccccc3)nc2n1` [Example 132, 1-methyl-N-(2-phenylimidazo[1,2-a]pyrimidin-7-yl)-4-(2-oxa-6-azaspiro[3.3]heptane-6-carbonyl)-1H-pyrazole-5-carboxamide], for which the IC50 is 0.0486 µM.
`CCCN(C)C(=O)c1cnn(C)c1C(=O)Nc1ccn2cc(-c3ccccc3)nc2n1` [Example 56, 2-Methyl-2H-pyrazole-3,4-dicarboxylic acid 4-(methyl-propyl-amide) 3-[(2-phenyl-imidazo[1,2-a]pyrimidin-7-yl)-amide]]: the IC50 was found to be 0.0173 µM.
As for `Cc1cccc(C(=O)Nc2ccn3cc(-c4ccccc4)nc3n2)n1` [Example 25, 6-Methyl-pyridine-2-carboxylic acid (2-phenyl-imidazo[1,2-a]pyrimidin-7-yl)-amide], the IC50 came out at 0.324 µM.
As to `Cc1cc(CNC(=O)c2cnn(C)c2C(=O)Nc2ccn3cc(-c4ccccc4)nc3n2)n[nH]1` [Example 121, 1-methyl-N-4-((5-methyl-1H-pyrazol-3-yl)methyl)-N5-(2-phenylimidazo[1,2-a]pyrimidin-7-yl)-1H-pyrazole-4,5-dicarboxamide], the half-inhibitory concentration (IC50) was determined as 0.0167 µM.
On to `COCCN(C)C(=O)c1cnn(C)c1C(=O)Nc1ccn2cc(-c3cccc(OCF)c3)nc2n1` [Example 99, 2-Methyl-2H-pyrazole-3,4-dicarboxylic acid 3-{[2-(3-fluoromethoxy-phenyl)-imidazo[1,2-a]pyrimidin-7-yl]-amide}-4-[(2-methoxy-ethyl)-methyl-amide]], for which the concentration for half-maximal inhibition (IC50) was 0.019 µM.
In the case of `CN(CCC#N)C(=O)c1cnn(C)c1C(=O)Nc1ccn2cc(-c3ccccc3)nc2n1` [Example 70, 2-Methyl-2H-pyrazole-3,4-dicarboxylic acid 4-[(2-cyano-ethyl)-methyl-amide]3-[(2-phenyl-imidazo[1,2-a]pyrimidin-7-yl)-amide]], the IC50 is 0.0332 µM.
In the case of `O=C(Nc1ccn2cc(-c3ccccc3)nc2n1)c1ccno1` [Example 2, Isoxazole-5-carboxylic acid (2-phenyl-imidazo[1,2-a]pyrimidin-7-yl)-amide], the IC50 worked out at 0.951 µM.
For `Cn1ncc(C(=O)N2CCC2)c1C(=O)Nc1ccn2cc(-c3cccc(O)c3)nc2n1` [Example 83, 4-(Azetidine-1-carbonyl)-2-methyl-2H-pyrazole-3-carboxylic acid [2-(3-hydroxy-phenyl)-imidazo[1,2-a]pyrimidin-7-yl]-amide], the half-maximal inhibitory concentration (IC50) was determined as 0.0034 µM.
On to `O=C(Nc1ccn2cc(-c3ccccc3)nc2n1)c1cccc(Cl)n1` [Example 21, 6-Chloro-pyridine-2-carboxylic acid (2-phenyl-imidazo[1,2-a]pyrimidin-7-yl)-amide], for which the IC50 was 0.314 µM.
